IC20 and IC50 data for nine compounds are collected here from patent US20230041743A1, “1,8-NAPHTHYRIDIN-2-ONE COMPOUNDS FOR THE TREATMENT OF AUTOIMMUNE DISEASE” (Hoffmann-La Roche Inc., priority 2019, published 2023).

Each structure is given as a SMILES string.

This data set concerns the target T1, hERG channel (Homo sapiens, UniProt Q12809).
T1 construct: expressed in transfected cells; host or cells: CHO (Chinese hamster ovary), CHOhERG
Nature of the data set: hERG channel inhibition assay (patch-clamp, CHOhERG cells). In kind it is cell-based. The conditions noted are these: whole-cell patch-clamp; for IC20: human, CHO cells stably expressing hERG (CHOhERG). The protocol:
hERG Channel Inhibition Assay
The hERG K^+ channels were cloned in humans and stably expressed in a CHO (Chinese hamster ovary) cell line. CHOhERG cells were used for patch-clamp (voltage-clamp, whole-cell) experiments. Cells were stimulated by a voltage pattern to activate hERG channels and conduct IKhERG Currents (rapid delayed outward rectifier potassium current of the hERG channel). After the cells were stabilized for a few minutes, the amplitude and kinetics of IKhERG were recorded at a stimulation frequency of 0.1 Hz (6 bpm). Thereafter, the test compound was added to the preparation at increasing concentrations. For each concentration, an attempt was made to reach a steady-state effect, usually, this was achieved within 3-10 min at which time the next highest concentration was applied. The amplitude and kinetics of IKhERG are recorded in each concentration of the drug which were compared to the control values (taken as 100%). (references: Redfern W S, Carlsson L, Davis A S, Lynch W G, MacKenzie I, Palethorpe S, Siegl P K, Strang I, Sullivan A T, Wallis R, Camm A J, Hammond T G. 2003; Relationships between preclinical cardiac electrophysiology, clinical QT interval prolongation and torsade de pointes for a broad range of drugs: evidence for a provisional safety margin in drug development. Cardiovasc. Res. 58:32-45, Sanguinetti M C, Tristani-Firouzi M. 2006; hERG potassium channels and cardiac arrhythmia. Nature 440:463-469, Webster R, Leishman D, Walker D. 2002; Towards a drug concentration effect relationship for QT prolongation and torsades de pointes. Curr. Opin. Drug Discov. Devel. 5:116-26).
Background: hERG is a cardiac potassium channel; its block is linked to QT prolongation.

T1 sequence (Q12809 whole entry): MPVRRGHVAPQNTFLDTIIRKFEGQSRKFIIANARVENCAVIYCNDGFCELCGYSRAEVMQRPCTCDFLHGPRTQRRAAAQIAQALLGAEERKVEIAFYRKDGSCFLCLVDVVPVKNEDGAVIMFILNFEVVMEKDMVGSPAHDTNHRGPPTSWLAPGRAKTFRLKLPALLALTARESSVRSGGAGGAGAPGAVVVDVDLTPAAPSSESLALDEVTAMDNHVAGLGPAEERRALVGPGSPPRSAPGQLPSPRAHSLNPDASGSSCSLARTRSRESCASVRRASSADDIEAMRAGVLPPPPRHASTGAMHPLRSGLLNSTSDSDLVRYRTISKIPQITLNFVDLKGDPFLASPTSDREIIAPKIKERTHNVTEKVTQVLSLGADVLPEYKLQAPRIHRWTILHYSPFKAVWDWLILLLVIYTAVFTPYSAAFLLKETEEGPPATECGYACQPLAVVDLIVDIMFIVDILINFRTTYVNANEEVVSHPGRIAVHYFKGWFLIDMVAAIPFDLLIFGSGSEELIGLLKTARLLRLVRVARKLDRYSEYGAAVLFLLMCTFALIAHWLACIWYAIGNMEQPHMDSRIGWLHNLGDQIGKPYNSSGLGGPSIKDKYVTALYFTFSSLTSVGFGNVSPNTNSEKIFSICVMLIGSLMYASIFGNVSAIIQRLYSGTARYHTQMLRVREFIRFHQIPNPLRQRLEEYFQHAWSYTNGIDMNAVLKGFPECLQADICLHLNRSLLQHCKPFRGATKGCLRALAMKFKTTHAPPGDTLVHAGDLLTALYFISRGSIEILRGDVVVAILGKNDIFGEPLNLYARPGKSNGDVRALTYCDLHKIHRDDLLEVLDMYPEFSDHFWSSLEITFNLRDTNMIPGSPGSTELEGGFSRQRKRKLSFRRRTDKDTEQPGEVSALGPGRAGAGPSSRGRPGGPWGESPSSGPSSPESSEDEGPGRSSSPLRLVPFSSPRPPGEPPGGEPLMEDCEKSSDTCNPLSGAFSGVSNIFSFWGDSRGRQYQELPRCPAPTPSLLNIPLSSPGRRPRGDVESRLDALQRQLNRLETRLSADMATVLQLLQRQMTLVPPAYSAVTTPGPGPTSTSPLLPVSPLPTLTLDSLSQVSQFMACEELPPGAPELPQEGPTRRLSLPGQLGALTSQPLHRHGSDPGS

For orientation: IC20 means the point of the concentration-response curve where the effect stands at 20%. Read a low IC20 as greater potency. As a reminder, the IC50 is the midpoint of a concentration-inhibition curve. Low values mean greater potency, high ones weaker potency. Take `C[C@@H]1CN(c2cc(=O)n(C)c3ncccc23)C[C@@H]2c3ccc(N4CC5(CN(C)C5)C4)cc3CN12` [Example 2, 4-[(4R,10bS)-4-methyl-8-(6-methyl-2,6-diazaspiro[3.3]heptan-2-yl)-3,4,6,10b-tetrahydro-1H-pyrazino[2,1-a]isoindol-2-yl]-1-methyl-1,8-naphthyridin-2-one]: the concentration for an effect of 20% (IC20) was greater than 10 µM and the IC50 was greater than 20 µM.
The like results for `CO[C@@H]1CN(c2ccc3c(c2)CN2[C@H](C)CN(c4cc(=O)n(C)c5ncccc45)C[C@H]32)C[C@H]1N` [Example 5, 4-[(4R,10bS)-8-[(3R,4R)-3-amino-4-methoxy-pyrrolidin-1-yl]-4-methyl-3,4,6,10b-tetrahydro-1H-pyrazino[2,1-a]isoindol-2-yl]-1-methyl-1,8-naphthyridin-2-one] were, in that order, greater than 10 µM and greater than 20 µM.
`C[C@@H]1CN(c2cc(=O)n(C)c3ncccc23)C[C@@H]2c3ccc(N4CCN[C@@H](C)C4)cc3CN12` [Example 13, 4-[(4R,10bS)-4-methyl-8-[(3S)-3-methylpiperazin-1-yl]-3,4,6,10b-tetrahydro-1H-pyrazino[2,1-a]isoindol-2-yl]-1-methyl-1,8-naphthyridin-2-one] displayed a concentration for an effect of 20% (IC20) of 7.2 µM and a half-inhibitory concentration (IC50) greater than 20 µM.
For `C[C@@H]1CN(c2ccc3c(c2)CN2[C@H](C)CN(c4cc(=O)n(C)c5ncccc45)C[C@H]32)CCN1` [Example 14, 4-[(4R,10bS)-4-methyl-8-[(3R)-3-methylpiperazin-1-yl]-3,4,6,10b-tetrahydro-1H-pyrazino[2,1-a]isoindol-2-yl]-1-methyl-1,8-naphthyridin-2-one] the same measures were greater than 10 µM and greater than 20 µM.
With `C[C@@H]1CN(c2cc(=O)n(C)c3ncccc23)C[C@@H]2c3ccc(N4CCC[C@](C)(N)C4)cc3CN12` [Example 15, 4-[(4R,10bS)-8-[(3S)-3-amino-3-methyl-1-piperidyl]-4-methyl-3,4,6,10b-tetrahydro-1H-pyrazino[2,1-a]isoindol-2-yl]-1-methyl-1,8-naphthyridin-2-one], the 20% effect concentration (IC20) was greater than 10 µM and the IC50 was greater than 20 µM.
The like results for `C[C@@H]1CN(c2cc(=O)n(C)c3ncccc23)C[C@@H]2c3ccc(N4CCC(C)(N)CC4)cc3CN12` [Example 18, 4-[(4R,10bS)-8-(4-amino-4-methyl-1-piperidyl)-4-methyl-3,4,6,10b-tetrahydro-1H-pyrazino[2,1-a]isoindol-2-yl]-1-methyl-1,8-naphthyridin-2-one] were, in that order, greater than 10 µM and greater than 20 µM.
For `C[C@@H]1CN(c2cc(=O)n(C)c3ncccc23)C[C@@H]2c3ccc(N4C[C@@H]5C[C@H]4CN5)cc3CN12` [Example 19, 4-[(4R,10bS)-8-[(1S,4S)-2,5-diazabicyclo[2.2.1]heptan-2-yl]-4-methyl-3,4,6,10b-tetrahydro-1H-pyrazino[2,1-a]isoindol-2-yl]-1-methyl-1,8-naphthyridin-2-one] the same measures were greater than 10 µM and greater than 20 µM.
The like results for `C[C@@H]1CN(c2cc(=O)n(C)c3ncccc23)C[C@@H]2c3ccc(N4CCOC[C@H](N)C4)cc3CN12` [Example 22, 4-[(4R,10bS)-8-[(6R)-6-amino-1,4-oxazepan-4-yl]-4-methyl-3,4,6,10b-tetrahydro-1H-pyrazino[2,1-a]isoindol-2-yl]-1-methyl-1,8-naphthyridin-2-one] were, in that order, greater than 10 µM and greater than 20 µM.
In turn, `C[C@@H]1CN(c2cc(=O)n(C)c3ncccc23)C[C@@H]2c3ccc(C4CCNCC4)cc3CN12` [Example 24, 4-[(4R,10bS)-4-methyl-8-(4-piperidyl)-3,4,6,10b-tetrahydro-1H-pyrazino[2,1-a]isoindol-2-yl]-1-methyl-1,8-naphthyridin-2-one] returned an IC20 greater than 10 µM and a half-maximal inhibitory concentration (IC50) greater than 20 µM.
